Consider 12 compounds from patent US6967237B2, “Ghrelin analogs” (priority 2000, dated 2005).

Like-named read-outs stand apart in the source and are kept apart here. Where a SMILES comes first, the peptide text is derived from it. Where no end group is shown, it is not given here. [ ]: non-standard residue; d: D form. The star is where a group is joined. Octanoyl = CCCCCCCC(=O)*

One assay deals with human GHSR1a (Homo sapiens, UniProt Q92847). In words: Aequorin bioluminescence functional assay (intracellular calcium mobilization) in 293AEQ17/GHSR1a cells. The settings on record: for activation at 10 µM: read-out: Functional Assay % activation at 10 μM relative to ghrelin; for EC50: aequorin bioluminescence, HEK-293 cells expressing hGHSR1a, three separate assays. Type of assay: cell-based. (In general: Calcium assays in cells follow changes in intracellular calcium, usually with a dye or a luminescent sensor.)
human GHSR1a, sequence (Q92847 whole entry): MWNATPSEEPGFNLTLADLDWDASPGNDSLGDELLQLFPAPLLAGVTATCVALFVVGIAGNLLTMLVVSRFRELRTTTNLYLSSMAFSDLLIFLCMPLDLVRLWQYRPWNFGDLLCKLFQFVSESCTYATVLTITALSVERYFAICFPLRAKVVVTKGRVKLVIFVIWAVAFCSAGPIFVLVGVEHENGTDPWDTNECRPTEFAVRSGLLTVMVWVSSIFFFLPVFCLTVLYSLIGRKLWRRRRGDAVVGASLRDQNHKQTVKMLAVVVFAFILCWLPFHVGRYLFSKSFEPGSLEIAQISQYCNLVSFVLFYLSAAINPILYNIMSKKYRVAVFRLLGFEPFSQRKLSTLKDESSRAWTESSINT

A further assay addresses human GHS receptor 1a (Homo sapiens, UniProt Q92847). Put plainly: Competitive binding assay with [35S]-MK-677 on membranes of HEK 293-aequorin cells transfected with human GHS receptor. The following applies: competition with 0.05 nM [35S]-MK-677; three separate assays in triplicate.
The subject of the next assay is somatotrops. The settings on record: several species including man; cited from earlier work.

human GHS receptor 1a, sequence (Q92847 whole entry): as above
Description for human GHS receptor 1a: Prior to the binding assay, the HEK 293-AEQ17 cells (8×10^5 cells plated 18 hours before transfection in a T75 flask) were transfected with 22 μg of human GHS receptor plasmid using 264 μg lipofectamine. The open reading frame cDNA (SEQ. ID. NO. 22) encoding the human GHS receptor inserted in the mammalian expression vector pcDNA-3 (Invitrogen, Carlsbad, Calif.) was used for binding and expression studies.
For a 96-well filter binding assay, 0.05 nM [^35S]-NM-677 (specific activity ˜1200 Ci/mmol) was bound to 4 μg membrane protein per well with or without competing test ligand. The bound membranes were filtered on 0.5% polyethylenimine prewet filters (UniFilter 96 GF/C; Packard #6005174, Meriden, Conn.). Filters were washed 8 times, dried, and counted with Microscint 20 (Packard #6013621, Meriden, Conn.). IC50 values were determined from three separate assays performed in triplicate.
Description for human GHSR1a: A stable cell line expressing the human GHSR1a and the aequorin reporter protein were used for the assay.
The assay was performed using a Luminoskan RT luminometer (Labsystems Inc., Gaithersburg, Md.) controlled by custom software written for a Macintosh PowerPC 6100. […] The cells were harvested, washed once in ECB medium and resuspended to 500,000 cells/ml. 100 ml of cell suspension (corresponding to 5×10^4 cells) was then injected into the test plate containing the peptides, and the integrated light emission was recorded over 30 seconds, in 0.5 second units. 20 μL of lysis buffer (0.1% final Triton X-100 concentration) was then injected and the integrated light emission recorded over 10 seconds, in 0.5 second units. The “fractional response” values for each well were calculated by taking the ratio of the integrated response to the initial challenge to the total integrated luminescence including the Triton X-100 lysis response. The functional EC50 values were measured in three separate assays.

`CCCCCCCC(=O)NC[C@H](NC(=O)[C@H](CO)NC(=O)CN)C(=O)N[C@@H](Cc1ccccc1)C(=O)N[C@@H](CC(C)C)C(=O)N[C@@H](CO)C(=O)N1CCC[C@H]1C(=O)N[C@@H](CCC(=O)O)C(=O)N[C@@H](Cc1c[nH]cn1)C(=O)N[C@@H](CCC(N)=O)C(=O)N[C@@H](CCCNC(=N)N)C(=O)N[C@H](C(=O)N[C@@H](CCC(N)=O)C(=O)N[C@@H](CCC(N)=O)C(=O)N[C@@H](CCCNC(=N)N)C(=O)N[C@@H](CCCCN)C(=O)N[C@@H](CCC(=O)O)C(=O)N[C@@H](CO)C(=O)N[C@@H](CCCCN)C(=O)N[C@@H](CCCCN)C(=O)N1CCC[C@H]1C(=O)N1CCC[C@H]1C(=O)N[C@@H](C)C(=O)N[C@@H](CCCCN)C(=O)N[C@@H](CC(C)C)C(=O)N[C@@H](CCC(N)=O)C(=O)N1CCC[C@H]1C(=O)N[C@@H](CCCNC(=N)N)C(=O)O)C(C)C` [Compound 12]: the activation at 10 µM at human GHSR1a (at 10 μM, relative to ghrelin) worked out at 105 ± 5%.

For the compound `CCCCCCCC(=O)OC[C@H](NC(=O)[C@H](CO)NC(=O)CN)C(=O)N[C@@H](Cc1ccccc1)C(=O)N[C@@H](CC(C)C)C(=O)N[C@@H](CO)C(=O)N1CCC[C@H]1C(=O)N[C@@H](CCC(=O)O)C(=O)N[C@@H](Cc1c[nH]cn1)C(=O)N[C@@H](CCC(N)=O)C(=O)N[C@@H](CCCNC(=N)N)C(=O)N[C@H](C(=O)N[C@@H](CCC(N)=O)C(=O)N[C@@H](CCC(N)=O)C(N)=O)C(C)C` [Compound 13, GSXFLSPEHQRVQQ], the activation at 10 µM on human GHSR1a (at 10 μM, relative to ghrelin) was found to be 97 ± 9%. The same measure, in the same setting: to `CCCCCCCC(=O)NC[C@H](NC(=O)[C@H](CO)NC(=O)CN)C(=O)N[C@@H](Cc1ccccc1)C(=O)N[C@@H](CC(C)C)C(=O)N[C@@H](CO)C(=O)N1CCC[C@H]1C(=O)N[C@@H](CCC(=O)O)C(=O)N[C@@H](Cc1c[nH]cn1)C(=O)N[C@@H](CCC(N)=O)C(=O)N[C@@H](CCCNC(=N)N)C(=O)N[C@H](C(=O)N[C@@H](CCC(N)=O)C(=O)N[C@@H](CCC(N)=O)C(=O)O)C(C)C` [Compound 14] belongs 102 ± 3%; to `CCCCCCCC(=O)OC[C@H](NC(=O)[C@H](CO)NC(=O)CN)C(=O)N[C@@H](Cc1ccccc1)C(=O)N[C@@H](CC(C)C)C(=O)N[C@@H](CO)C(=O)N1CCC[C@H]1C(=O)N[C@@H](CCC(=O)O)C(=O)N[C@@H](Cc1c[nH]cn1)C(=O)N[C@@H](CCC(N)=O)C(=O)N[C@@H](CCCNC(=N)N)C(=O)N[C@H](C(=O)N[C@@H](CCC(N)=O)C(=O)N[C@@H](CCC(N)=O)C(=O)N[C@@H](CCCNC(=N)N)C(=O)N[C@@H](CCCCN)C(=O)N[C@@H](CCC(=O)O)C(=O)N[C@@H](CO)C(=O)N[C@@H](CCCCN)C(=O)N[C@@H](CCCCN)C(=O)N1CCC[C@H]1C(=O)N1CCC[C@H]1C(=O)N[C@@H](C)C(N)=O)C(C)C` [Compound 18, GSXFLSPEHQRVQQRKESKKPPA-NH2] (H-GSS(Octanoyl)FLSPEHQRVQQRKESKKPPA-NH2), 100 ± 4%; to `CCCCCCCC(=O)OC[C@H](NC(=O)[C@H](CO)NC(=O)CN)C(=O)N[C@@H](Cc1ccccc1)C(=O)N[C@@H](CC(C)C)C(=O)N[C@@H](CO)C(=O)N1CCC[C@H]1C(=O)N[C@@H](CCC(=O)O)C(=O)N[C@@H](Cc1c[nH]cn1)C(=O)N[C@@H](CCC(N)=O)C(=O)N[C@@H](CCCNC(=N)N)C(=O)N[C@H](C(=O)N[C@@H](CCC(N)=O)C(=O)N[C@@H](CCC(N)=O)C(=O)N[C@@H](CCCNC(=N)N)C(=O)N[C@@H](CCCCN)C(=O)N[C@@H](CCC(=O)O)C(=O)N[C@@H](CO)C(N)=O)C(C)C` [Compound 19, GSXFLSPEHQRVQQRKES-NH2] (H-GSS(Octanoyl)FLSPEHQRVQQRKES-NH2; N-terminus assumed), 92 ± 16%.

As to `CCCCCCCC(=O)OC[C@H](NC(=O)[C@H](CO)NC(=O)CN)C(=O)N[C@@H](Cc1ccccc1)C(=O)N[C@@H](CC(C)C)C(N)=O` [Compound 21, GSXFL-NH2] (H-GSS(Octanoyl)FL-NH2), the activation at 10 µM at human GHSR1a (at 10 μM, relative to ghrelin) was found to be 96 ± 7%.

The term IC50 denotes the concentration needed to halve the response being measured. A word on the EC50: it is the midpoint of the concentration-response curve. On human GHS receptor 1a, `CCCCCCCC(=O)OC[C@H](NC(=O)[C@H](CO)NC(=O)CN)C(=O)N[C@@H](Cc1ccccc1)C(N)=O` [Compound 22, GSXF-NH2] (H-GSS(Octanoyl)F-NH2) had a half-inhibitory concentration (IC50) of 889 ± 72 nM. The EC50 on human GHSR1a was determined as 72 ± 29 nM. Moreover, the activation at 10 µM on human GHSR1a (at 10 μM, relative to ghrelin) was found to be 91 ± 4%. In the case of `CCCCCCCC(=O)OC[C@H](NC(=O)[C@H](CO)NC(C)=O)C(=O)N[C@@H](Cc1ccccc1)C(=O)N[C@@H](CC(C)C)C(N)=O` [Compound 23, Ac-SXFL-NH2] (Ac-SS(Octanoyl)FL-NH2), the EC50 on human GHSR1a was determined as 1150 ± 120 nM. In addition, at human GHSR1a (at 10 μM, relative to ghrelin), the activation at 10 µM was determined as 30 ± 5%. Turning to `CCCCCCCC(=O)OC[C@H](NC(=O)[C@H](CO)NC(=O)CN)C(N)=O` [Compound 24, GSX-NH2] (H-Gly-Ser-Ser(Octanoyl)-NH2), the activation at 10 µM on human GHSR1a is 28 ± 1%. With `CCCCCCCC(=O)OC[C@H](NC(C)=O)C(=O)N[C@@H](Cc1ccccc1)C(=O)N[C@@H](CC(C)C)C(N)=O` [Compound 25, Ac-XFL-NH2] (Ac-Ser(Octanoyl)-Phe-Leu-NH2), on human GHSR1a, the EC50 was 2500 ± 1200 nM and the activation at 10 µM is 29 ± 7%. Take `CCCCCCCC(=O)OC[C@H](NC(=O)[C@H](CO)NC(C)=O)C(=O)N[C@@H](Cc1ccccc1)C(N)=O` [Compound 26, Ac-SXF-NH2] (Ac-Ser-Ser(Octanoyl)-Phe-NH2): on human GHSR1a (at 10 μM, relative to ghrelin), the activation at 10 µM turned out to be 28 ± 1%. Turning to H[dW]AW[dF]K-NH2 [GHRP-6], the “growth hormone release from somatotrops, result in words” value with somatotrops is “release growth hormone from somatotrops in a dose-dependent manner”.
